{"source": "patent US7662802B2", "about": "“Halide-free glucosamine-acidic drug complexes” (Gluconova, LLC, priority 2004, dated 2010)", "experiment": "stability of halide-free glucosamine at ambient temperature and/or the atmosphere", "assay_type": "physicochemical"}
{"smiles": "N[C@H]1C(O)O[C@H](CO)[C@@H](O)[C@@H]1O", "note": "(some centres unmarked) [halide-free glucosamine, glucosamine]", "values": [{"measurement": "hygroscopicity", "result": "quite hygroscopic"}, {"measurement": "stability on storage", "setting": "subjected to ambient temperature and/or to the atmosphere", "result": "will decompose over a period of time"}]}
